Several values for one entry are separate records, joined by “and”; a condition that tells them apart may be missing. Identical values can stand only once. Toxic doses and inconclusive results are not listed. Rule as the data show it: active = T/C of 150% or more; inactive = T/C below 125%.
System: L1210 leukemia ip in BDF1 mice, survival T/C
Assay: NCI In Vivo Anticancer Drug Screen. Data for tumor model L1210 Leukemia (intraperitoneal) in B6D2F1 (BDF1) mice
Conditions: endpoint: mean survival time, higher = longer survival
In short: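 Transplanted-tumor mice were given test agent; controls received vehicle only. Survival readings from the two groups were divided (treated over control).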

[1] = dose: 100.0 mg/kg/injection, schedule: Q01DX001 (ip), vehicle: saline
[2] = dose: 100.0 mg/kg/injection, schedule: Q04DX003 (ip), vehicle: saline
[3] = dose: 200.0 mg/kg/injection, schedule: Q01DX001 (ip), vehicle: saline
[4] = dose: 200.0 mg/kg/injection, schedule: Q04DX003 (ip), vehicle: saline
[5] = dose: 400.0 mg/kg/injection, schedule: Q01DX001 (ip), vehicle: saline
[6] = dose: 400.0 mg/kg/injection, schedule: Q04DX003 (ip), vehicle: saline
[7] = dose: 100.0 mg/kg/injection, schedule: Q04DX003 (ip), vehicle: Klucel (hydroxypropylcellulose) (HPC)
[8] = dose: 200.0 mg/kg/injection, schedule: Q04DX003 (ip), vehicle: Klucel (hydroxypropylcellulose) (HPC)
[9] = dose: 400.0 mg/kg/injection, schedule: Q04DX003 (ip), vehicle: Klucel (hydroxypropylcellulose) (HPC)
[10] = dose: 100.0 mg/kg/injection, schedule: Q04DX003 (ip), vehicle: saline with Tween-80
[11] = dose: 200.0 mg/kg/injection, schedule: Q04DX003 (ip), vehicle: saline with Tween-80
[12] = dose: 400.0 mg/kg/injection, schedule: Q04DX003 (ip), vehicle: saline with Tween-80
[13] = dose: 100.0 mg/kg/injection, schedule: Q01DX009 (ip), vehicle: saline
[14] = dose: 200.0 mg/kg/injection, schedule: Q01DX009 (ip), vehicle: saline
[15] = dose: 400.0 mg/kg/injection, schedule: Q01DX009 (ip), vehicle: saline
[16] = dose: 50.0 mg/kg/injection, schedule: Q01DX001 (ip), vehicle: saline
[17] = dose: 100.0 mg/kg/injection, schedule: Q01DX001 (ip), vehicle: carboxymethylcellulose (CMC)
[18] = dose: 200.0 mg/kg/injection, schedule: Q01DX001 (ip), vehicle: carboxymethylcellulose (CMC)
[19] = dose: 400.0 mg/kg/injection, schedule: Q01DX001 (ip), vehicle: carboxymethylcellulose (CMC)
[20] = dose: 100.0 mg/kg/injection, schedule: Q01DX009 (ip), vehicle: Klucel (hydroxypropylcellulose) (HPC)
[21] = dose: 200.0 mg/kg/injection, schedule: Q01DX009 (ip), vehicle: Klucel (hydroxypropylcellulose) (HPC)
[22] = dose: 400.0 mg/kg/injection, schedule: Q01DX009 (ip), vehicle: Klucel (hydroxypropylcellulose) (HPC)

Measured: T/C

O=C(O)CNc1cc(S(=O)(=O)O)cc2cc(S(=O)(=O)O)c(N=Nc3ccc(S(=O)(=O)O)c4ccccc34)c(O)c12
inactive: [1] 98 % of control | [2] 106 % of control | [3] 95 % of control | [4] 90 % of control | [5] 98 % of control | [6] 95 % of control

Nc1ccc(OCC(=O)Nc2ccc(S(=O)(=O)F)cc2)cc1
inactive: [1] 101 % of control | [3] 103 % of control

BrCC(Br)c1ccccc1 (stereo not drawn)
inactive: [7] 91 % of control | [8] 91 % of control | [9] 98 % of control

c1ccc(C2=NC3CCCCC3N=C2c2ccccc2)cc1 (stereo not drawn)
inactive: [10] 101 % of control | [11] 95 % of control | [12] 96 % of control

O=C1NC(=O)C2(CCN(CC3COc4ccccc4O3)CC2)C(=O)N1 (stereo not drawn)
inactive: [7] 97 % of control | [8] 103 % of control | [9] 109 % of control

CN(C)C(=NN)N(C)C
inactive: dose: 50.0 mg/kg/injection, schedule: Q04DX003 (ip), vehicle: saline 105 % of control | [2] 100 % of control | [4] 100 % of control

COC(=O)C1C2OC(C3OC32)C1C(=O)OC (stereo not drawn)
inactive: [13] 103 % of control | [14] 104 % of control | [15] 95 % of control

O=C(NC1CCCCC1)c1ccc(C(=O)NC2CCCCC2)cc1
inactive: dose: 100.0 mg/kg/injection, schedule: Q04DX002 (ip), vehicle: Klucel (hydroxypropylcellulose) (HPC) 94 % of control | dose: 200.0 mg/kg/injection, schedule: Q04DX002 (ip), vehicle: Klucel (hydroxypropylcellulose) (HPC) 102 % of control | dose: 400.0 mg/kg/injection, schedule: Q04DX002 (ip), vehicle: Klucel (hydroxypropylcellulose) (HPC) 91 % of control

COC(=O)C1CCN(Cc2ccccc2)CC1=O (stereo not drawn)
inactive: [16] 110 % of control | [1] 104 % of control | [3] 104 % of control | [5] 104 % of control

Cc1cc[c]([Hg][I])cc1
inactive: dose: 6.25 mg/kg/injection, schedule: Q01DX009 (ip), vehicle: Klucel (hydroxypropylcellulose) (HPC) 93 % of control | dose: 12.5 mg/kg/injection, schedule: Q01DX009 (ip), vehicle: Klucel (hydroxypropylcellulose) (HPC) 94 % of control | dose: 25.0 mg/kg/injection, schedule: Q04DX002 (ip), vehicle: Klucel (hydroxypropylcellulose) (HPC) 87 % of control

COc1ccc(OC)c(NC(=O)Nc2ccc(CCO)cc2)c1
inactive: [13] 99 % of control | [14] 102 % of control | [15] 103 % of control

CC(=O)c1ccc(SC(=O)N(C)C)cc1
inactive: [10] 98 % of control | [11] 93 % of control | [12] 97 % of control

COc1cc2c(cc1OC)[C@H]1CNC[C@H]1[C@@H](c1ccccc1)C2
inactive: dose: 50.0 mg/kg/injection, schedule: Q01DX009 (ip), vehicle: saline 95 % of control | [13] 106 % of control | [2] 97 % of control | [14] 106 % of control | [4] 106 % of control

COc1ccc2nc3cc(Cl)ccc3c(Cl)c2c1
inactive: dose: 50.0 mg/kg/injection, schedule: Q04DX003 (ip), vehicle: carboxymethylcellulose (CMC) 87 % of control | [17] 97 % of control | dose: 100.0 mg/kg/injection, schedule: Q04DX003 (ip), vehicle: carboxymethylcellulose (CMC) 92 % of control | [18] 90 % of control | dose: 200.0 mg/kg/injection, schedule: Q04DX003 (ip), vehicle: carboxymethylcellulose (CMC) 91 % of control | [19] 100 % of control

Cc1nc2ccccc2cc1CO
inactive: [10] 105 % of control | [11] 102 % of control | [12] 102 % of control

CC(=Nc1ccc(Cl)cc1)Nc1ccc(Cl)cc1
inactive: dose: 62.5 mg/kg/injection, schedule: Q01DX009 (ip), vehicle: Klucel (hydroxypropylcellulose) (HPC) 92 % of control | dose: 125.0 mg/kg/injection, schedule: Q01DX009 (ip), vehicle: Klucel (hydroxypropylcellulose) (HPC) 96 % of control | dose: 250.0 mg/kg/injection, schedule: Q01DX009 (ip), vehicle: Klucel (hydroxypropylcellulose) (HPC) 100 % of control

Nc1cccc(/C=C/c2ccncc2)c1
inactive: [20] 97 % of control | [21] 94 % of control | [22] 95 % of control

CC(=O)Nc1ccc2[nH]c(C)cc(=O)c2c1
inactive: dose: 100.0 mg/kg/injection, schedule: Q01DX009 (ip), vehicle: water 98 % of control | dose: 100.0 mg/kg/injection, schedule: Q04DX003 (ip), vehicle: water 110 % of control | dose: 200.0 mg/kg/injection, schedule: Q01DX009 (ip), vehicle: water 96 % of control | dose: 200.0 mg/kg/injection, schedule: Q04DX003 (ip), vehicle: water 110 % of control | dose: 400.0 mg/kg/injection, schedule: Q01DX009 (ip), vehicle: water 100 % of control | dose: 400.0 mg/kg/injection, schedule: Q04DX003 (ip), vehicle: water 107 % of control

CCN(Cc1ccccc1)C(=O)Nc1ccc(OC)cc1
inactive: [20] 103 % of control | [21] 97 % of control | [22] 106 % of control

CC(C)COP(=O)(Cc1ccccc1)OCC(C)C
inactive: [20] 110 % of control | [21] 101 % of control

CCCCn1c(C)nc2c([N+](=O)[O-])cc(C(F)(F)F)cc21
inactive: dose: 100.0 mg/kg/injection, schedule: Q01DX001 (ip), vehicle: Klucel (hydroxypropylcellulose) (HPC) 104 % of control | dose: 400.0 mg/kg/injection, schedule: Q01DX001 (ip), vehicle: Klucel (hydroxypropylcellulose) (HPC) 98 % of control

COC(C)(OC)C(N)=O
inactive: dose: 100.0 mg/kg/injection, schedule: Q01DX009 (ip), vehicle: saline with Tween-80 96 % of control | [7] 94 % of control | dose: 200.0 mg/kg/injection, schedule: Q01DX009 (ip), vehicle: saline with Tween-80 111 % of control | [8] 96 % of control | dose: 400.0 mg/kg/injection, schedule: Q01DX009 (ip), vehicle: saline with Tween-80 98 % of control | [9] 92 % of control

O=[N+]([O-])c1ccc(OCCC[P+](c2ccccc2)(c2ccccc2)c2ccccc2)c(Cl)c1
inactive: dose: 3.12 mg/kg/injection, schedule: Q01DX009 (ip), vehicle: saline 98 % of control | dose: 6.25 mg/kg/injection, schedule: Q01DX009 (ip), vehicle: saline 95 % of control | dose: 6.25 mg/kg/injection, schedule: Q04DX003 (ip), vehicle: saline 94 % of control | dose: 12.5 mg/kg/injection, schedule: Q01DX009 (ip), vehicle: saline 86 % of control and 87 % of control | dose: 12.5 mg/kg/injection, schedule: Q04DX003 (ip), vehicle: saline 92 % of control | dose: 25.0 mg/kg/injection, schedule: Q04DX003 (ip), vehicle: saline 90 % of control

O=c1ccc2cc3oc(=O)ccc3cc2o1
inactive: dose: 100.0 mg/kg/injection, schedule: Q01DX001 (ip), vehicle: saline with Tween-80 90 % of control | dose: 200.0 mg/kg/injection, schedule: Q01DX001 (ip), vehicle: saline with Tween-80 97 % of control | dose: 400.0 mg/kg/injection, schedule: Q01DX001 (ip), vehicle: saline with Tween-80 90 % of control

O=C(O)CCCCCn1nnc2c(=O)[nH]cnc21
inactive: [2] 106 % of control | [4] 106 % of control | [6] 101 % of control

CCOCCOCCC(=O)OC
inactive: dose: 62.5 mg/kg/injection, schedule: Q01DX001 (ip), vehicle: Klucel (hydroxypropylcellulose) (HPC) 95 % of control | dose: 125.0 mg/kg/injection, schedule: Q01DX001 (ip), vehicle: Klucel (hydroxypropylcellulose) (HPC) 89 % of control | dose: 250.0 mg/kg/injection, schedule: Q01DX001 (ip), vehicle: Klucel (hydroxypropylcellulose) (HPC) 113 % of control

O=C(O)/C=C/c1ccccc1Br
inactive: [16] 97 % of control | [1] 91 % of control | [20] 102 % of control | [3] 94 % of control | [21] 100 % of control | [5] 97 % of control | [22] 100 % of control

COC(=O)c1[nH]cnc1/N=N/N(C)C1CCCCC1
inactive: [17] 91 % of control | [18] 102 % of control

C/C(=N/O)c1ccc2c(c1)/C(=N/O)c1ccccc1-2
inactive: [17] 109 % of control | [18] 94 % of control | [19] 93 % of control

CC(=O)Nc1cc(C)c(C=O)cc1C
inactive: [17] 88 % of control | [18] 108 % of control | [19] 92 % of control

Source: PubChem BioAssay AID248 (DTP/NCI, 2004)
